Measured values published in PubChem BioAssay (NCI).
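Abbreviation: GI50, concentration required for 50% inhibition of growth. TGI denotes the concentration required for complete inhibition of growth.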

How the values were obtained:
Assay in all cases: DTP human tumour cell line panel, 384-well format
786-0 renal = test system: 786-0 renal
A498 renal = test system: A498 renal
A549 NSCLC = test system: A549 NSCLC
ACHN renal = test system: ACHN renal
BT-549 breast = test system: BT-549 breast
CAKI-1 renal = test system: CAKI-1 renal
COLO 205 colon = test system: COLO 205 colon
DU-145 prostate = test system: DU-145 prostate
EKVX NSCLC = test system: EKVX NSCLC
HCT-116 colon = test system: HCT-116 colon
HCT-15 colon = test system: HCT-15 colon
HL-60(TB) leukemia = test system: HL-60(TB) leukemia
HOP-62 NSCLC = test system: HOP-62 NSCLC
HOP-92 NSCLC = test system: HOP-92 NSCLC
HS 578T breast = test system: HS 578T breast
HT29 colon = test system: HT29 colon
IGROV1 ovarian = test system: IGROV1 ovarian
K-562 leukemia = test system: K-562 leukemia
KM12 colon = test system: KM12 colon
M14 melanoma = test system: M14 melanoma
MALME-3M melanoma = test system: MALME-3M melanoma
MCF7 breast = test system: MCF7 breast
MDA-MB-231 breast = test system: MDA-MB-231 breast
MDA-MB-435 melanoma = test system: MDA-MB-435 melanoma
MDA-MB-468 breast = test system: MDA-MB-468 breast
MOLT-4 leukemia = test system: MOLT-4 leukemia
NCI-H226 lung = test system: NCI-H226 lung

## CNC(=O)c1cc2c(Oc3ccc(NC(=O)C4(C(=O)Nc5ccc(F)cc5)CC4)cc3)ccnc2cc1OC
786-0 renal
  GI50: 3.09 µM
  TGI: 12.5 µM
A498 renal
  GI50: 2.87 µM
  TGI: 9.79 µM
A549 NSCLC
  GI50: 3.1 µM
  TGI: 11.2 µM
ACHN renal
  GI50: 1.67 µM
  TGI: 5.7 µM
BT-549 breast
  GI50: 2.49 µM
  TGI: 6.88 µM
CAKI-1 renal
  GI50: 1.61 µM
  TGI: 3.42 µM
COLO 205 colon
  GI50: 3.38 µM
  TGI: 14.4 µM
DU-145 prostate
  GI50: 4.12 µM
  TGI: > 100 µM
EKVX NSCLC
  GI50: 1.68 µM
  TGI: 5.23 µM
HCT-116 colon
  GI50: 3.17 µM
  TGI: 19.9 µM
HCT-15 colon
  GI50: 2.96 µM
  TGI: 12.3 µM
HL-60(TB) leukemia
  GI50: 2.13 µM
  TGI: 4.05 µM
HOP-62 NSCLC
  GI50: 3.47 µM
  TGI: 24.3 µM
HOP-92 NSCLC
  GI50: 1.37 µM
  TGI: 5.99 µM
HS 578T breast
  GI50: 0.601 µM
  TGI: 2.73 µM
HT29 colon
  GI50: 2.96 µM
  TGI: 13.3 µM
IGROV1 ovarian
  GI50: 1.48 µM
  TGI: 3.41 µM
K-562 leukemia
  GI50: 0.261 µM
  TGI: 1.29 µM
KM12 colon
  GI50: 4.09 µM
  TGI: 74.6 µM
M14 melanoma
  GI50: 3.36 µM
  TGI: 31.5 µM
MALME-3M melanoma
  GI50: 3.5 µM
  TGI: 17.1 µM
MCF7 breast
  GI50: 1.72 µM
  TGI: 10.4 µM
MDA-MB-231 breast
  GI50: 3.33 µM
  TGI: > 100 µM
MDA-MB-435 melanoma
  GI50: 1.63 µM
  TGI: 3.47 µM
MDA-MB-468 breast
  GI50: 1.57 µM
  TGI: 4.59 µM
MOLT-4 leukemia
  GI50: 1.4 µM
  TGI: 2.72 µM
NCI-H226 lung
  GI50: 1.63 µM
